Data: patent US11685746B2, “Heteroaryl compounds for treating Huntington's disease” (PTC THERAPEUTICS, INC., priority 2018, dated 2023)

Tested on: Endogenous Huntingtin Protein
Experiment: Endogenous Huntingtin Protein Assay (MSD plates, MW1 or MAB2166 capture antibody)
Type: cell-based
Conditions: Table 1
Procedure, shortened: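 Sandwich MSD immunoassay: plates were coated overnight at 4° C with MW1 (expanded polyQ) or MAB2166 capture antibody at 1 μg/mL, then blocked with 5% BSA. Samples were bound overnight at 4° C, followed by rabbit mAb #5656S and SULFO-TAG anti-rabbit detection, each at 0.25 μg/mL for 1 h at room temperature. Signal was read by electrochemiluminescence.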

| Compound | IC50 |
| --- | --- |
| Cc1cn(-c2cnc(-c3nc4sc(N(C)C5CCNCC5)nc4s3)c(O)c2)cn1 [Compound 221, 5-(4-methyl-1H-imidazol-1-yl)-2-{5-[methyl(piperidin-4-yl)amino][1,3]thiazolo[5,4-d][1,3]thiazol-2-yl}pyridin-3-ol] | ≤ 100 nM |
| Cc1ncc(-c2cnc(-c3nc4sc(N(C)C5CCNCC5)nc4s3)c(O)c2)s1 [Compound 222, 2-{5-[methyl(piperidin-4-yl)amino][1,3]thiazolo[5,4-d][1,3]thiazol-2-yl}-5-(2-methyl-1,3-thiazol-5-yl)pyridin-3-ol] | ≤ 100 nM |
| Cc1ncc(-c2cnc(-c3nc4sc(N(C)C5CCNCC5)nc4s3)c(O)c2)o1 [Compound 223, 5-(2-methyl-1,3-oxazol-5-yl)-2-{5-[methyl(piperidin-4-yl)amino][1,3]thiazolo[5,4-d][1,3]thiazol-2-yl}pyridin-3-ol] | ≤ 100 nM |
| Cc1cc(-c2cnc(-c3nc4sc(N(C)C5CCNCC5)nc4s3)c(O)c2)cnn1 [Compound 224, 2-{5-[methyl(piperidin-4-yl)amino][1,3]thiazolo[5,4-d][1,3]thiazol-2-yl}-5-(6-methylpyridazin-4-yl)pyridin-3-ol] | ≤ 100 nM |
| CN(c1nc2sc(-c3ncc(-c4ccnnc4)cc3O)nc2s1)C1CCNCC1 [Compound 225, 2-{5-[methyl(piperidin-4-yl)amino][1,3]thiazolo[5,4-d][1,3]thiazol-2-yl}-5-(pyridazin-4-yl)pyridin-3-ol] | ≤ 100 nM |
| CN(c1nc2sc(-c3cnc(-c4cn[nH]c4)c4[nH]ccc34)nc2s1)C1CCNCC1 [Compound 226, N-methyl-N-(piperidin-4-yl)-5-[7-(1H-pyrazol-4-yl)-1H-pyrrolo[2,3-c]pyridin-4-yl][1,3]thiazolo[5,4-d][1,3]thiazol-2-amine] | ≤ 100 nM |
| N-methyl-N-[(2S,4R)-2-methylpiperidin-4-yl]-5-[4-(1H-pyrazol-4-yl)-1H-pyrrolo[2,3-c]pyridin-7-yl][1,3]thiazolo[5,4-d][1,3]thiazol-2-amine [Compound 71] | 100 to 500 nM |
| N-methyl-N-[(2S,4R)-2-methylpiperidin-4-yl]-5-[4-(1H-pyrazol-4-yl)-1H-pyrrolo[2,3-c]pyridin-7-yl][1,3]thiazolo[5,4-d][1,3]thiazol-2-amine [Compound 72] | ≤ 100 nM |
